Assay results from article PMC5947850 (ACS infectious diseases, 2017).
“And” between values parts separate entries of the source, which are not always exact repeats. Identical values can stand only once. Like-named read-outs stand apart in the source and are kept apart here. Marks after values point to notes of the source that are not given here. Each block holds one compound with its values, some of them ahead of it.

How the values were obtained:
[1] = tested on: luciferase-transfected P. berghei sporozoites; details: dosed 1 hour prior to sporozoite inoculation; cited from earlier work
[2] = target: T1, P. falciparum cytochrome bc1 (Plasmodium falciparum, UniProt Q02768); details: read-out: P. falciparum cytochrome bc1 EC50, cited from earlier work
T1 sequence (Q02768 1-376): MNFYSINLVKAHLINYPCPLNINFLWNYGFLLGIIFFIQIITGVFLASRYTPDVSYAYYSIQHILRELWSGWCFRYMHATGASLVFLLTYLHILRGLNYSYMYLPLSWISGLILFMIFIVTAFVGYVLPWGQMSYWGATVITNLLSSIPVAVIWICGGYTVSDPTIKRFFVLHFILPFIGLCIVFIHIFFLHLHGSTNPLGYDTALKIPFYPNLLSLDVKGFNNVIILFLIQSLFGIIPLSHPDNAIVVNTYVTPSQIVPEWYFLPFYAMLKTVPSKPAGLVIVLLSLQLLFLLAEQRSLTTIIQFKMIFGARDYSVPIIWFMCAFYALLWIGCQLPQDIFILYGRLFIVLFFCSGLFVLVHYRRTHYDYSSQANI

[3] = tested on: luciferase-transfected P. berghei sporozoites; type: in vivo, C57BL/6 albino mice; details: 24 hours prior to sporozoite inoculation
Human cytochrome bc1 [4] = target: T2, Human cytochrome bc1 (Homo sapiens, UniProt P00156); details: read-out: Human cytochrome bc1 EC50; ref Nilsen, et al. 14; cited from earlier work
[5] = tested on: blood-stage Plasmodium yoelii; experiment: Modified 4-day suppression test in mice; type: in vivo; details: 4-day Peters Test
P. yoelii = experiment: Single dose cure of patent infection in mice; type: in vivo; details: dose required to clear patent infection without recrudescence for 30 days post-infection, PEG-400
HepG2 cells = experiment: Mitochondrial toxicity, CellTiter-Glo ATP in galactose medium; type: cell-based, human; details: 72 hour incubation
in vitro = in vitro ADME; details: human, plasma
Human cytochrome bc1 [6] = target: T2, Human cytochrome bc1; experiment: Human cytochrome bc1 inhibition; type: biochemical; details: read-out: Human cytochrome bc1 EC50
[7] = tested on: P. falciparum D6 (drug sensitive); experiment: 72 h SYBR Green I assay, P. falciparum D6; type: cell-based; details: Plasmodium falciparum, D6, 72 h, read-out: In vitro activity vs. P. falciparum IC50, D6
[8] = tested on: P. falciparum Dd2 (chloroquine resistant); experiment: 72 h SYBR Green I assay, P. falciparum Dd2; type: cell-based; details: Plasmodium falciparum, DD2, 72 h, read-out: In vitro activity vs. P. falciparum IC50, Dd2
[9] = tested on: P. falciparum Tm90-C2B (Chloroquine and Atovaquone resistant); experiment: 72 h SYBR Green I assay, P. falciparum Tm90-C2B; type: cell-based; details: Plasmodium falciparum, TM90, 72 h, read-out: In vitro activity vs. P. falciparum IC50, C2B

SMILES: COc1cc2[nH]c(C)c(-c3ccc(Oc4ccc(OC(F)(F)F)cc4)cc3)c(=O)c2cc1Cl [ELQ-300]
Fully protective dose against liver stage infection [1]: ≤ 0.03 mg/kg
EC50 ([2]; ref Nilsen, et al. 14): 0.56 nM
Mice with positive IVIS signal at 24 hours ([3]; 0.1 mg/kg oral): 2/5
Mice with positive IVIS signal at 48 hours ([3]; 0.1 mg/kg oral): 5/5
Mice with no parasitemia ([3]; 1 mg/kg oral): 4/5
Mice with no parasitemia ([3]; 3 mg/kg oral): 5/5
Parasite burden in the liver (IVIS) ([3]; 3 and 1 mg/kg oral): no detectable parasite burden in the liver
EC50 (Human cytochrome bc1 [4]): > 10000 nM
In vivo efficacy (oral) P. yoelii NRD (non-recrudescence dose) [5]: 1 mg/kg/day and 1.0 mg/kg/day
In vivo efficacy (oral) P. yoelii Single Dose Cure (P. yoelii): >20 ^e mg/kg/day
Highest concentration without inhibition or alteration of ATP production (HepG2 cells): ≥ 25 µM

SMILES: CCOC(=O)OC(C)Oc1c(-c2ccc(Oc3ccc(OC(F)(F)F)cc3)cc2)c(C)nc2cc(OC)c(Cl)cc12 (stereo not drawn) [ELQ-387]
In vivo efficacy (oral) P. yoelii Single Dose Cure (P. yoelii): 5.0 mg/kg/day

SMILES: COc1cc2nc(C)c(-c3ccc(Oc4ccc(OC(F)(F)F)cc4)cc3)c(OCOC(=O)OC(C)C)c2cc1Cl [ELQ-330]
In vivo efficacy (oral) P. yoelii Single Dose Cure (P. yoelii): 5.0 mg/kg/day

half-life at 1 μM (in vitro): 37.5 min
SMILES: CC(C)[N+](C)(CCOC(=O)C1c2ccccc2Oc2ccccc21)C(C)C [Propantheline bromide]

EC50 (Human cytochrome bc1 [6]): > 10000 nM
SMILES: CCOC(=O)Oc1c(-c2ccc(Oc3ccc(OC(F)(F)F)cc3)cc2)c(C)nc2cc(OC)c(Cl)cc12 [ELQ-337]
EC50 ([2]; ref Miley, et al. 26): 10000 nM

SMILES: CCN(CC)CCCC(C)Nc1ccnc2cc(Cl)ccc12 (stereo not drawn) [CQ, chloroquine]
IC50 [7]: 10 nM
In vivo efficacy (oral) P. yoelii NRD (non-recrudescence dose) [5]: >64 mg/kg/day
IC50 [8]: 140 nM
In vivo efficacy (oral) P. yoelii Single Dose Cure (P. yoelii): >64 mg/kg/day
IC50 [9]: 98 nM
